Patent US20070238765A1, “Heterocyclic GABAA subtype selective receptor modulators” (Roche Palo Alto LLC, priority 2006, published 2007)

Legend:
GABAA α2β3γ2 = biological target: T1, GABAA α2β3γ2 (Homo sapiens, UniProt P18507+P28472+P47869); test: 35S-TBPS binding assay, HEK293 membranes with GABAA α2β3γ2 construct; conditions: 35S-TBPS 5 nM, GABA 1 μM, 2 hours at room temperature, read-out: α2β3γ2 (35S-TBPS binding, pIC50) (converted)
T1 construct: expressed in transfected cells; host or cells: HEK293
T1 sequence (P47869 29-451): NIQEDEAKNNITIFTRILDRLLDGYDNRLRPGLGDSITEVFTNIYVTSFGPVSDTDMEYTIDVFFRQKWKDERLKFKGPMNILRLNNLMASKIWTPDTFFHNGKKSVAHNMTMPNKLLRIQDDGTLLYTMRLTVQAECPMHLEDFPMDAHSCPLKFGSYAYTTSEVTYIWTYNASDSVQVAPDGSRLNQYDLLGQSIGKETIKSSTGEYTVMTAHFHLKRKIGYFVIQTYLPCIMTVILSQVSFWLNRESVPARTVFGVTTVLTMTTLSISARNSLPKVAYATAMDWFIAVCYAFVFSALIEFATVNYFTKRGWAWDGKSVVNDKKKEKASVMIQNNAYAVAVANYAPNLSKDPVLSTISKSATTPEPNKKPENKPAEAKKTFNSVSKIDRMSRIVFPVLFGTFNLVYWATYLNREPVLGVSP
T1 sequence (P28472 26-473): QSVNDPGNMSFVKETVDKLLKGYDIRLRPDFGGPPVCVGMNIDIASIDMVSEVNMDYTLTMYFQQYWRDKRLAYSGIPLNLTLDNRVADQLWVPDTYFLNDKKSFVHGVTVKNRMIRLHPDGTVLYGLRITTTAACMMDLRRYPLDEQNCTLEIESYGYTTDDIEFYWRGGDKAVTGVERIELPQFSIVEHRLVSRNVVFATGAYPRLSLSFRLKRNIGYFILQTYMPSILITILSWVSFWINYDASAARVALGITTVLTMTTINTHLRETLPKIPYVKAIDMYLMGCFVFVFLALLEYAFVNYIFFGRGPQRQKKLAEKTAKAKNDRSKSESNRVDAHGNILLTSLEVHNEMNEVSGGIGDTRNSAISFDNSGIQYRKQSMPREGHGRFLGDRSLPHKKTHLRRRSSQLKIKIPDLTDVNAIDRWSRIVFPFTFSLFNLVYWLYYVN
T1 sequence (P18507 40-475): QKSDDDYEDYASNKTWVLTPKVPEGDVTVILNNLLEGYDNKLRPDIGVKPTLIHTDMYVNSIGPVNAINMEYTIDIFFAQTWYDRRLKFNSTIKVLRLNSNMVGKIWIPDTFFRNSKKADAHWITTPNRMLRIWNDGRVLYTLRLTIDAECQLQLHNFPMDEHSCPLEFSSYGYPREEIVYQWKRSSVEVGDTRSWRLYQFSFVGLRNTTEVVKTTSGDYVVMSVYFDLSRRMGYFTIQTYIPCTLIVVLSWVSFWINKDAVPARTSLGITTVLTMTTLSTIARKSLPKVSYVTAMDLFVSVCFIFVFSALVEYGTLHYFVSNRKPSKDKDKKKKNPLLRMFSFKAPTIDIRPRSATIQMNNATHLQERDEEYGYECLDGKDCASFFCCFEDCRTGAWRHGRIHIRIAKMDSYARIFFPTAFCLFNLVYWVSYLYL
Experimental: (§1) The binding assay is based on the assay reported by K. Gee et al., Eur. J. Pharmacol. 1987, 136, 419-423.
(§2) Homogenate preparation: Membrane preparations of HEK293 cells containing either GABAA α1β2γ2 or GABAA α2β3γ2 constructs were performed according to a modified procedure previously described by Gee et al. (supra). Whole HEK 293 cells in D-PBS (calcium/magnesium free) buffer adjusted to pH 7.4 were centrifuged at 7,280×g for 20 m. After discarding the supernatant, the pellet was resuspended in the buffer and centrifuged at 1,820×g for 10 m. Afterwards, the supernatant was discarded and the pellet resuspended in ice-cold preparation buffer (50 mM Tris HCl pH 7.4, 4° C. and 150 mM KCl), homogenized for 30 sec using a Brinkmann Polytron PT3000 (setting 6) and centrifuged at 48,000×g for 30 m at 4° C. The centrifugation and homogenization procedure was repeated two more times for a total of 3 times before resuspending the membranes at a final protein concentration of 0.5 mg/mL. Aliquots (30 mL) of the final membrane preparation were then centrifuged at 48,000×g for 30 m, and the resulting pellets were stored at −80° C. until required.
(§3) 35S-TBPS binding assay. Membrane pellets containing either GABAA α1β2γ2 or GABAA α2β3γ2 constructs were thawed on ice, resuspended in 10 mL of 50 mM Tris HCl pH7.4, 4° C. and 150 mM KCl and centrifuged at 48,000×g, 30 m at 4° C. After discarding the supernatant, the pellet was resuspended in 30 mL incubation buffer (50 mM Tris HCl pH 7.4, 25° C. and 150 mM KCl) at approximately 0.5 mg/mL protein concentration. In 35S-TBPS competition studies, HEK293 membranes were incubated with 35S-TBPS (5 nM final) and GABA (1 μM) in the absence or presence of competitor at concentrations ranging from 0.01 nM to 10 μM in 125 μL incubation buffer for 2 hours at room temperature (˜22° C.). Non-specific binding was assayed with picrotoxin (100 μM final concentration). The binding reaction was terminated by vacuum filtration through GF/B filters previously soaked in 0.1% polyethylenimine followed by 3×1 mL washes with ice cold wash buffer (50 mM Tris HCl pH7.4, 4° C. and 150 mM KCl). Measurement of bound radioactivity was performed using a Packard Microplate 96 well topcount scintillation counter. Analysis of competition curves and estimation of pIC50 values of test compounds were performed using the software programs ActivityBase and/or Prism (version 3.0).

GABAA α1β2γ2 = biological target: T2, GABAA α1β2γ2 (Homo sapiens, UniProt P14867+P18507+P47870); test: 35S-TBPS binding assay, HEK293 membranes with GABAA α1β2γ2 construct; conditions: 35S-TBPS 5 nM, GABA 1 μM, 2 hours at room temperature, read-out: α1β2γ2 (35S-TBPS binding, pIC50) (converted)
T2 construct: expressed in transfected cells; host or cells: HEK293
T2 sequence (P14867 28-456): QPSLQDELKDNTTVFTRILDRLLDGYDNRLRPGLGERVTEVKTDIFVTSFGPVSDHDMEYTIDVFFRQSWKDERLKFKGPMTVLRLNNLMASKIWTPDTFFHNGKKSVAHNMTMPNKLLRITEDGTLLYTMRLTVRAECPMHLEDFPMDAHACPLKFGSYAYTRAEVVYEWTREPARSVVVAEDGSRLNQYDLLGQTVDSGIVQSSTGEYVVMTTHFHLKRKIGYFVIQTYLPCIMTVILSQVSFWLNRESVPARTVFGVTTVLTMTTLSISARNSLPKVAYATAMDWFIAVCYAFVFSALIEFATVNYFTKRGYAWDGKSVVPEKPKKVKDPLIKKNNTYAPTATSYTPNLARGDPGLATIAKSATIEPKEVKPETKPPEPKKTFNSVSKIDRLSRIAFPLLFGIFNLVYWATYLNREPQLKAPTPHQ
T2 sequence (P47870 25-512 limits assumed): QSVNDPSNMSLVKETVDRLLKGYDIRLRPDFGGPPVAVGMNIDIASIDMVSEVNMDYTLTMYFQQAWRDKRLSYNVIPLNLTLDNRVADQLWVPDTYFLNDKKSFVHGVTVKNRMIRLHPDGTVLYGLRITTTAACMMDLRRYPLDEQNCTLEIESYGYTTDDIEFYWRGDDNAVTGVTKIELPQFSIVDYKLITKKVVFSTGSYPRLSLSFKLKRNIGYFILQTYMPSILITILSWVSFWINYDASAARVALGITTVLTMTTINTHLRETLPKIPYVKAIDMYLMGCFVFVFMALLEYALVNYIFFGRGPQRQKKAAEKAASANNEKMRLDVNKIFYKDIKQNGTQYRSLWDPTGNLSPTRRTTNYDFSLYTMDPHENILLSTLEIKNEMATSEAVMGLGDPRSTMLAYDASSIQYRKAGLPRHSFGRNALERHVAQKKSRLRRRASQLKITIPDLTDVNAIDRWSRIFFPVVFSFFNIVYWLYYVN
T2 sequence (P18507 40-475): as the sequence (P18507 40-475) above
Experimental: as §1, §2, §3

Row | melting point [°C] | IC50 (GABAA α2β3γ2) [nM] | IC50 (GABAA α1β2γ2) [nM] | SMILES
1 | 165.9 to 167.5 | 1510 | 6310 | Cn1nc2c(-c3ccc(Cl)cc3Cl)cccc2c1CN1CCOC1=O [I-8, 3-[7-(2,4-Dichloro-phenyl)-2-meth-yl-2H-indazol-3-yl-methyl]-oxazolidin-2-one]
2 | 66.1 to 87.2 | 398 | > 10000 | Cn1nc2c(-c3ccc(Cl)cc3Cl)cccc2c1Cc1nnnn1CCO [I-10, 2-{5-[7-(2,4-Dichloro-phenyl)-2-methyl-2H-inda-zol-3-ylmethyl]-tetrazol-1-yl}-eth-anol]
3 | 147.7 to 151.1 | 347 | 1510 | Cn1nc2c(-c3ccc(Cl)cc3Cl)cccc2c1Cc1nnn(CCO)n1 [I-11, 2-{5-[7-(2,4-Dichloro-phenyl)-2-methyl-2H-inda-zol-3-ylmethyl]-tetrazol-2-yl}-eth-anol]
4 | 156.6 to 157.8 | 269 | 1150 | Cn1nc2c(-c3ccc(Cl)cc3Cl)cccc2c1Cc1nnn(CS(C)(=O)=O)n1 [I-12, 7-(2,4-Dichloro-phenyl)-3-(2-meth-anesulfonylmethyl-2H-tetra-zol-5-ylmethyl)-2-meth-yl-2H-indazole]
5 | 283.9 to 284.9 | 331 | > 10000 | Cn1nc2c(-c3ccc(Cl)cc3Cl)cccc2c1C(=O)c1ncn[nH]1 [I-15, [7-(2,4-Dichloro-phenyl)-2-meth-yl-2H-indazol-3-yl]-(2H-[1,2,4]tri-azol-3-yl)-meth-anone]
6 | 209.8 to 210.3 | 110 | 933 | Cn1nc2c(-c3ccc(Cl)cc3Cl)cccc2c1C(=O)c1nnn[nH]1 [I-18, [7-(2,4-Dichloro-phenyl)-2-meth-yl-2H-indazol-3-yl]-(1H-tetra-zol-5-yl)-methanone]
7 | 183.9 to 185.4 | 1700 | – | Cn1nnnc1Cc1c2cccc(-c3ccc(Cl)cc3Cl)c2nn1C [I-20, 7-(2,4-Dichloro-phenyl)-2-meth-yl-3-(1-methyl-1H-tetra-zol-5-ylmethyl)-2H-inda-zole]
8 | 117.9 to 121.3 | 4070 | > 10000 | Cn1nc2c(-c3ccc(Cl)cc3Cl)cccc2c1-n1cnnc1 [I-23, 7-(2,4-Dichloro-phenyl)-2-meth-yl-3-[1,2,4]triazol-4-yl-2H-inda-zole]
9 | 206.3 to 207 | 355 | 4170 | Cn1nc2c(-c3ccc(Cl)cc3Cl)cccc2c1Cc1nc[nH]n1 [I-31, 7-(2,4-Dichloro-phenyl)-2-meth-yl-3-(1H-[1,2,4]triazol-3-yl-methyl)-2H-indazole]
10 | 158.8 to 160.5 | 102 | 1480 | Cn1nnc(Cc2c3cccc(-c4ccc(Cl)cc4Cl)c3nn2C)n1 [I-33, 7-(2,4-Dichloro-phenyl)-2-meth-yl-3-(2-methyl-2H-tetra-zol-5-ylmethyl)-2H-inda-zole]
11 | 92 to 115.5 | 309 | 9550 | Cn1nc2c(-c3ccc(Cl)cc3Cl)cccc2c1CCc1ncn[nH]1 [I-34, 7-(2,4-Dichloro-phenyl)-2-meth-yl-3-[2-(2H-[1,2,4]tri-azol-3-yl)-ethyl]-2H-inda-zole]
12 | 60.5 to 65.1 | > 10000 | > 10000 | Cn1nc2c(-c3ccc(Cl)cc3Cl)cccc2c1CCC1=NCCN1 [I-38, 7-(2,4-Dichloro-phenyl)-3-[2-(4,5-di-hydro-1H-imidazol-2-yl)-eth-yl]-2-methyl-2H-inda-zole]
13 | 199 to 201.2 | 2820 | > 10000 | Cn1nc2c(-c3ccc(Cl)cc3Cl)cccc2c1-c1nnco1 [I-39, 7-(2,4-Dichloro-phenyl)-2-meth-yl-3-[1,3,4]oxadiazol-2-yl-2H-inda-zole]
14 | 212.8 to 214.5 | 4680 | > 10000 | Cn1nc2c(-c3ccc(Cl)cc3Cl)cccc2c1C1=NCCN1 [I-41, 7-(2,4-Dichloro-phenyl)-3-(4,5-di-hydro-1H-imidazol-2-yl)-2-meth-yl-2H-indazole]
15 | 209.4 to 210.3 | 603 | 479 | Cn1nc2c(-c3ccc(Cl)cc3Cl)cccc2c1CCc1nnn[nH]1 [I-46, 7-(2,4-Dichloro-phenyl)-2-meth-yl-3-[2-(1H-tetrazol-5-yl)-eth-yl]-2H-indazole]
16 | 256.8 to 258.1 | 151 | 1200 | Cn1nc2c(-c3ccc(Cl)cc3Cl)cccc2c1/C=C/c1nnn[nH]1 [I-47, 7-(2,4-Dichloro-phenyl)-2-meth-yl-3-[(E)-2-(1H-tetra-zol-5-yl)-vinyl]-2H-inda-zole]
17 | 162.2 to 167.1 | 468 | > 10000 | Cn1nc2c(-c3ccc(Cl)cc3Cl)cccc2c1C1=NCCO1 [I-48, 7-(2,4-Dichloro-phenyl)-3-(4,5-di-hydro-oxazol-2-yl)-2-meth-yl-2H-indazole]
18 | 178 to 178.5 | 676 | > 10000 | Cc1noc(-c2c3cccc(-c4ccc(Cl)cc4Cl)c3nn2C)n1 [I-50, 7-(2,4-Dichloro-phenyl)-2-meth-yl-3-(3-methyl-[1,2,4]oxa-diazol-5-yl)-2H-inda-zole]
19 | 167.5 to 169.5 | 166 | 3020 | Cn1nc2c(-c3ccc(Cl)cc3Cl)cccc2c1-c1cnco1 [I-51, 7-(2,4-Dichloro-phenyl)-2-meth-yl-3-oxazol-5-yl-2H-inda-zole]
20 | 270.1 to 275.5 | 234 | 2240 | Cn1nc2c(-c3ccc(Cl)cc3Cl)cccc2c1Cc1nnn[nH]1 [I-53, 7-(2,4-Dichloro-phenyl)-2-meth-yl-3-(1H-tetrazol-5-yl-methyl)-2H-indazole]

Row | SMILES | melting point [°C] | IC50 (GABAA α2β3γ2) [nM] | IC50 (GABAA α1β2γ2) [nM]
21 | Cn1nc2c(-c3ccc(Cl)cc3Cl)cccc2c1-n1ccnc1 [I-22, 7-(2,4-Dichloro-phenyl)-3-imi-dazol-1-yl-2-methyl-2H-inda-zole] | 63.2 to 89.4 | 355 | 3160
